# From patent publication US20100056525A1, “5- AND 6- SUBSTITUTED BENZIMIDAZOLE THIOPHENE COMPOUNDS” (priority 2006, published 2010)
# pIC50: −log10 of the molar value.
# Legend:
# [1] = target: T1, PLK1 kinase domain (Homo sapiens, UniProt P53350); experiment: Assay for Inhibition of PLK1 (SPA, 33P-ATP); type: biochemical; details: 2 nM PLK1 kinase domain, 1 μM ATP, 22° C.; read-out: PLK1 pIC50 (converted)
# T1 construct: made in house; host or cells: baculovirus infected T. ni cells
# Experimental: A. Preparation of 6× N-Terminal His-Tagged PLK Kinase Domain
# All procedures were performed at 4° C. Cells were lysed in 50 mM HEPES, 200 mM NaCl, 50 mM imidazole, 5% glycerol; pH 7.5. The homogenate was centrifuged at 14K rpm in a SLA-1500 rotor for 1 hr and the supernatant filtered through a 1.2 micron filter. The supernatant was loaded onto a Nickel chelating Sepharose (Amersham Pharmacia) column and washed with lysis buffer. Protein was eluted using 20%, 30% and 100% buffer B steps where buffer B was 50 mM HEPES, 200 mM NaCl, 300 mM imidazole, 5% glycerol; pH 7.5. Fractions containing PLK were determined by SDS-PAGE. Fractions containing PLK were diluted five-fold with 50 mM HEPES, 1 mM DTT, 5% glycerol; pH 7.5, then loaded on an SP Sepharose (Amersham Pharmacia) column. After washing the column with 50 mM HEPES, 1 mM DTT, 5% glycerol; pH 7.5, PLK was step eluted with 50 mM HEPES, 1 mM DTT, 500 mM NaCl; 5% glycerol; pH 7.5. PLK was concentrated using a 10 kDa molecular weight cutoff membrane and then loaded onto a Superdex 200 gel filtration (Amersham Pharmacia) column equilibrated in 25 mM HEPES, 1 mM DTT, 500 mM NaCl, 5% glycerol; pH 7.5. Fractions containing PLK were determined by SDS-PAGE. PLK was pooled, aliquoted and stored at −80° C. Samples were quality controlled using mass spectrometry, N-terminal sequencing and amino acid analysis.
# B. Enzyme Activity +/− Inhibitors was Determined as Follows:
# All measurements were obtained under conditions where signal production increased linearly with time and enzyme. Test compounds were added to white 384-well assay plates (0.1 μL for 10 μL and some 20 μL assays, 1 μL for some 20 μL assays) at variable known concentrations in 100% DMSO. DMSO (1-5% final, as appropriate) and EDTA (65 mM in reaction) were used as controls.
# Reaction Mix (10 or 20 μL) was quickly added to each well immediately following addition of enzyme via automated liquid handlers and incubated 1-1.5 h at 22° C. The 20 μL enzymatic reactions were stopped with 50 μL of stop mix (50 mM EDTA, 4.0 mg/mL Streptavidin SPA beads in Standard Dulbecco's PBS (without Mg^2+ and Ca^2+), 50 μM ATP) per well. The 10 μL reactions were stopped with 10 μL of stop mix (50 mM EDTA, 3.0 mg/mL Streptavidin-coupled SPA Imaging Beads (“LeadSeeker”) in Standard Dulbecco's PBS (without Mg^2+ and Ca^2+), 50 μM ATP) per well. Plates were sealed with clear plastic seals, spun at 500×g for 1 min or settled overnight, and counted in Packard TopCount for 30 seconds/well (regular SPA) or imaged using a Viewlux imager (LeadSeeker SPA). Signal above background (EDTA controls) was converted to percent inhibition relative to that obtained in control (DMSO-only) wells.
# [2] = tested on: HCT-116 (human colon) cells; experiment: Cell-Titer Glo Cell Growth Inhibition Assay; type: cell-based; details: HCT-116 cells, 72 h incubation, CellTiter-Glo, read-out: HCT116 IC50
# Experimental: A549-L (human lung), Colo 205 (human colon), HCT-116 (human colon), HT29 (human colon), MX-1 (human breast), SKOV3 (human ovary) and P388 (murine leukemia) cell lines were cultured in RPM11640 containing 10% fetal bovine serum at 37° C. in a 5% CO2 incubator. Cell lines were split into T75 flasks (Falcon #353136) two to three days prior to assay set up at density which yields approximately 70-80% confluency at time of harvest for assay. Cells were harvested using 0.25% trypsin with EDTA (Glibco/Invitrogen #25200-056), Cell counts were performed on cell suspensions using Trypan Blue exclusion staining, cells were then plated in 105 µL of culture media per well at the following densities in 96 well Costar #3916 black flat bottom plates: A549-L 500 cells/well, Colo205 500 cells/well, HCT-116 500 cells/well, HT29 500 cells/well, MX-1 500 cells/well, SKOV3 500 cells/well and P388 250 cells/well. All plates were placed at 5% CO2 37° C. overnight and then test compounds were added the following day. One plate of each cell type was treated with CellTiter-Glo (Promega #G7573) for a day 0 proliferation measurement and read as described below. The test compounds were prepared in clear U bottom polypropylene 96 well plates (Falcon #35-1190 with consecutive two fold dilutions. 9 uL of these dilutions was added into each well of the cell plates. The final concentration of DMSO in all wells was 0.15%. Cells were incubated at 37° C., 5% CO2 for 72 h. Following 72 h of incubation with compounds each plate was developed and read. CellTiter-Glo reagent was added to assay plates using a volume equivalent to the cell culture volume in the wells. Plates were shaken for approximately 2 min and incubated at rt for approximately 15 min and the chemiluminescent signal was read on the Victor V or Envison 2100 reader. […] Concentration of compound that inhibited 50% of cell growth (IC50) was analyzed by 4 or 6 parameter fit of data using XLfit, value of no cell addition was substracted from all samples for background.
# T1 sequence (P53350 21-346): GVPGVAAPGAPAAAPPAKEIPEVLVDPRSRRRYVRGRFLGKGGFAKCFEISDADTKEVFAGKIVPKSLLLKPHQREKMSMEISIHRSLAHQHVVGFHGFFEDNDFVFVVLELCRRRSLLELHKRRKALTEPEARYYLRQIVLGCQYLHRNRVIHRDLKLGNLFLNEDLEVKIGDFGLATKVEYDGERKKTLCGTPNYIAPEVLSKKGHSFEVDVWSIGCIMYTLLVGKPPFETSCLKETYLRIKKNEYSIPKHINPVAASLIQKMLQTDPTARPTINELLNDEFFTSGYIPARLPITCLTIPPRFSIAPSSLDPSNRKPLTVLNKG
smiles,measurement,setting,value
"C[C@@H](Oc1cc(-n2cnc3cc(-c4ccc(NCCCN5CCN(C)CC5)nn4)ccc32)sc1C(N)=O)c1ccccc1Cl [Example 34, 3-{[(1R)-1-(2-chlorophenyl)ethyl]oxy}-5-[5-(6-{[3-(4-methyl-1-piperazinyl)propyl]amino}-3-pyridazinyl)-1H-benzimidazol-1-yl]-2-thiophenecarboxamide]",IC50,[1],< 100 nM
same,pIC50,[2],6.00 to 6.30
